PubChem BioAssay AID2060325 (Molecular Pharmacology Branch, DTP, NCI, 2025)
Values joined by “and” are separate entries in the source; they are usually repeats but may differ in a detail not shown here. Equal entries are not always repeated.

System: SK-OV-3 multi-cell spheroids, viability
Assay: Anticancer human tumor SK-OV-3 cell line growth inhibition [IpAb];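 on viability, T/C: viability read after seven days of drug exposure; percent of DMSO vehicle control luminescence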
Settings: for viability, T/C: stronger effect = lower value
Source text: Combinatorial screen of targeted agents with ipatasertib and abemaciclib in multi-cell type tumor spheroids
A high-throughput screen of multi-cell type tumor spheroids was designed to identify active combinations of targeted small molecules and ipatasertib or abemaciclib. Complex spheroids include a stromal component modeled by human endothelial cells (HUVEC) and fibroblasts modeled by human mesenchymal stem cells (MSCs). The concentration ranges selected for each drug and investigational agent were based upon clinically achievable concentrations if the clinical Cmax of the agent was known.
Compounds. The drugs and investigational agents: ipatasertib (NSC767898), abemaciclib(NSC768073), selumetinib (NSC741078), trametinib (758246), adavosertib (NSC754352), everolimus (NSC733504), sapanisertib (NSC764658), vemurafenib (NSC761431), venetoclax (NSC766270), copanlisib (NSC809693), apelisib (NSC765974), palbociblib (NSC758247), vemurafenib (NSC761431), dabrafenib (NSC764134), ravoxertinib (NSC781343), BMS-387032 (NSC767048), sotorasib (NSC818433), talazoparib (NSC767125) and afursertib (NSC778305), were obtained from the National Cancer Institute (NCI) Developmental Therapeutics Program Chemical Repository. The FDA-approved anticancer drug set is available from the NCI Developmental Therapeutics Program. […] The stock solutions were prepared in dimethyl sulfoxide (DMSO, Sigma-Aldrich, St. Louis, MO, cat. D2650) at 800-fold the tested concentration and stored at -70 degrees C prior to their use. All drugs and investigational agents were tested over a range starting from a high concentration at or near the clinical Cmax and decreasing in half-log increments. If the clinical Cmax for an agent had not been determined, the highest concentration tested was 10 microM.
NCI60 Cell Culture. NCI60 cell lines were obtained from the NCI Developmental Therapeutics Program Tumor Repository. For each lot of cells, the Repository performed Applied Biosystems AmpFLSTR Identifiler testing with PCR amplification to confirm consistency with the published Identifier STR profile for each cell line. Cells were kept in continuous culture for no more than 20 passages. The optimal seeding densities for each of the cell lines at each time point assessed were determined prior to performing the concentration response studies. Briefly, the NCI60 human tumor lines were grown as monolayers in RPMI 1640 medium supplemented with 10% FBS and 2 mmol/L L-glutamine.
An additional 9 lines were from the NCI60 cell line panel including MDA-MB-231 breast carcinoma, MDA-MB-468 breast carcinoma, MCF7 breast carcinoma, Hs578T breast carcinoma, MALME-3M melanoma, SK-MEL-2 melanoma, SK-OV-3 ovarian carcinoma, DU-145 prostate carcinoma, PC-3 prostate carcinoma, all cell lines along with major genetic alterations are listed on Table 2. Pooled donor human umbilical vein endothelial cells (HUVEC, Lonza, cat. CC-2519) and human mesenchymal stem cells (hMSC, Lonza, cat. PT-2501) were purchased from Lonza (Walkersville, MD).
PDMR cell lines were grown in complete medium (DC medium): Dulbecco's modified Eagle's medium (DMEM)/F12 supplemented with 5% fetal bovine serum (FBS), 2 mM L-glutamine, 100 U/mL penicillin and 100 µg/ml streptomycin, 0.4 µg/ml hydrocortisone, 10 ng/ml epidermal growth factor (EGF) recombinant human protein, 24 µg/mL adenine, and 0.1 mg/mL primocin. During culture from frozen stock vials, PDMR cells were cultured in the same medium containing 10 µM Y-27632 (see Table 3). The PDCs were cultured in complete DMEM/F12 media without 10 microM Y-27632 dihydrochloride for at least two passages prior to the screen. The pooled donor HUVEC and hMSC were cultured in endothelial cell growth medium 2 (PromoCell, Heidelberg, Germany, cat. C-22011) and mesenchymal stem cell growth medium 2 (PromoCell, cat. C-28009), respectively. For all experiments, HUVEC and hMSC were used at passages </=5.
[…]

`C=CC(=O)N1CCN(c2nc(=O)n(-c3c(C)ccnc3C(C)C)c3nc(-c4c(O)cccc4F)c(F)cc23)C(C)C1` (configuration not stated) was tested. Which viability, T/C (compound 0.0316 µM) did it give?
The viability, T/C was 100% and 104%.

What about the viability, T/C (compound 0.1 µM) of the same molecule?
Its viability, T/C is 107% and 105%.

What about the viability, T/C (compound 0.316 µM) of the same molecule?
The viability, T/C was 111% and 117%.

What about the viability, T/C (compound 1 µM) of the same molecule?
The viability, T/C was 115% and 130%.

What about the viability, T/C (compound 3.16 µM) of the same molecule?
The viability, T/C was 125% and 120%.

And the viability, T/C (compound 10 µM)?
The viability, T/C was 77.3% and 82.5%.

What about the IC50 (curve of compound) of the same molecule?
The IC50 was > 10000 nM.

With `C=CCn1c(=O)c2cnc(Nc3ccc(N4CCN(C)CC4)cc3)nc2n1-c1cccc(C(C)(C)O)n1` as the molecule, how does the viability, T/C (compound 0.0316 µM) read?
Its viability, T/C is 89.6% and 97.2%.

What about the viability, T/C (compound 0.1 µM) of the same molecule?
The viability, T/C was 64.6% and 59.2%.

And the viability, T/C (compound 0.316 µM)?
Its viability, T/C is 13.3% and 15.5%.

What about the viability, T/C (compound 1 µM) of the same molecule?
Its viability, T/C is 8.1% and 7.49%.

And the viability, T/C (compound 3.16 µM)?
Its viability, T/C is 4.13% and 4.87%.

What about the viability, T/C (compound 10 µM) of the same molecule?
Its viability, T/C is 6.98% and 5.63%.

And the IC50 (curve of compound)?
The IC50 was 139 nM and 128 nM.

What does the source list for `CC(=O)c1c(C)c2cnc(Nc3ccc(N4CCNCC4)cn3)nc2n(C2CCCC2)c1=O`?
viability, T/C (compound 0.000949 µM): 95.2% and 104%; viability, T/C (compound 0.003 µM): 88.7% and 83.4%; viability, T/C (compound 0.00949 µM): 75.1% and 80.8%; viability, T/C (compound 0.03 µM): 60.9% and 56.5%; viability, T/C (compound 0.0949 µM): 56.6% and 55%; viability, T/C (compound 0.3 µM): 54.1% and 49.9%; IC50 (curve of compound): > 300 nM and 253 nM

Which viability, T/C (compound 0.00949 µM) does the source give for `CC(C)(C)c1cnc(CSc2cnc(NC(=O)C3CCNCC3)s2)o1` here?
Its viability, T/C is 111% and 106%.

And the viability, T/C (compound 0.03 µM)?
Its viability, T/C is 119% and 113%.

And the viability, T/C (compound 0.0949 µM)?
The viability, T/C was 120% and 117%.

And the viability, T/C (compound 0.3 µM)?
The viability, T/C was 14.5% and 23.1%.

And the viability, T/C (compound 0.949 µM)?
The viability, T/C was 0.98% and 1.33%.

What about the viability, T/C (compound 3 µM) of the same molecule?
Its viability, T/C is 0.95% and 1.2%.

What about the IC50 (curve of compound) of the same molecule?
Its IC50 is 189 nM and 212 nM.

Which viability, T/C (compound 0.1 µM) does the source give for `CC(C)NCC(C(=O)N1CCN(c2ncnc3c2C(C)CC3O)CC1)c1ccc(Cl)cc1` (configuration not stated) here?
Its viability, T/C is 69% [middle of 13 runs].

What about the viability, T/C (compound 0.316 µM) of the same molecule?
Its viability, T/C is 37.8% [middle of 13 runs].

And the viability, T/C (compound 1 µM)?
Its viability, T/C is 21.5% [middle of 13 runs].

And the viability, T/C (compound 3.16 µM)?
The viability, T/C was 15.8% [middle of 13 runs].

And the viability, T/C (compound 10 µM)?
The viability, T/C was 10.5% [middle of 12 runs].

What about the IC50 (compound alone, run of 05/18/2021) of the same molecule?
Its IC50 is 202 nM [middle of 13 runs].

What does the source list for `CC(C)n1nc(-c2ccc3oc(N)nc3c2)c2c(N)ncnc21`?
viability, T/C (compound 0.000316 µM): 90.3% and 86.6%; viability, T/C (compound 0.001 µM): 71.8% and 76.2%; viability, T/C (compound 0.00316 µM): 37.6% and 42.3%; viability, T/C (compound 0.01 µM): 19.2% and 21.4%; viability, T/C (compound 0.0316 µM): 10.8% and 11.2%; viability, T/C (compound 0.1 µM): 7.02% and 7.25%; IC50 (curve of compound): 2.13 nM and 2.54 nM

What does the source list for `CC1(C)CCC(CN2CCN(c3ccc(C(=O)NS(=O)(=O)c4ccc(NCC5CCOCC5)c([N+](=O)[O-])c4)c(Oc4cnc5[nH]ccc5c4)c3)CC2)=C(c2ccc(Cl)cc2)C1`?
viability, T/C (compound 0.0316 µM): 108% and 100%; viability, T/C (compound 0.1 µM): 105% and 103%; viability, T/C (compound 0.316 µM): 104% and 112%; viability, T/C (compound 1 µM): 96.4% and 94.5%; viability, T/C (compound 3.16 µM): 61.8% and 62.1%; viability, T/C (compound 10 µM): 24.5% and 5.23%; IC50 (curve of compound): 4560 nM and 4020 nM

Which viability, T/C (compound 0.0316 µM) does the source give for `CCCS(=O)(=O)Nc1ccc(F)c(C(=O)c2c[nH]c3ncc(-c4ccc(Cl)cc4)cc23)c1F` here?
The viability, T/C was 116% and 100%.

What about the viability, T/C (compound 0.1 µM) of the same molecule?
Its viability, T/C is 101% and 100%.

And the viability, T/C (compound 0.316 µM)?
The viability, T/C was 108%.

And the viability, T/C (compound 1 µM)?
Its viability, T/C is 102% and 108%.

And the viability, T/C (compound 3.16 µM)?
The viability, T/C was 89.4% and 88.4%.

And the viability, T/C (compound 10 µM)?
Its viability, T/C is 33.9% and 49.1%.

What about the IC50 (curve of compound) of the same molecule?
The IC50 was 7130 nM and 9740 nM.

What does the source list for `CCN1CCN(Cc2ccc(Nc3ncc(F)c(-c4cc(F)c5nc(C)n(C(C)C)c5c4)n3)nc2)CC1`?
viability, T/C (compound 0.01 µM): 87.1% [middle of 13 runs]; viability, T/C (compound 0.0316 µM): 71.2% [middle of 13 runs]; viability, T/C (compound 0.1 µM): 54.8% [middle of 13 runs]; viability, T/C (compound 0.316 µM): 53.6% [middle of 13 runs]; viability, T/C (compound 1 µM): 43.7% [middle of 13 runs]

How did the viability, T/C (compound 0.00316 µM) turn out when `COc1c(OCCCN2CCOCC2)ccc2c3n(c(=NC(=O)c4cnc(N)nc4)nc12)CCN3` was run?
The viability, T/C was 92.7% and 89.1%.

What about the viability, T/C (compound 0.01 µM) of the same molecule?
The viability, T/C was 44.2% and 46.4%.

And the viability, T/C (compound 0.0316 µM)?
Its viability, T/C is 11.5% and 12.2%.

And the viability, T/C (compound 0.1 µM)?
The viability, T/C was 7.4% and 8.86%.

And the viability, T/C (compound 0.316 µM)?
The viability, T/C was 6.39% and 5.98%.

What about the viability, T/C (compound 1 µM) of the same molecule?
Its viability, T/C is 4.6% and 3.86%.

And the IC50 (curve of compound)?
Its IC50 is 8.71 nM and 9.06 nM.
